Ends that are not written are not given here.
Assays:
[1] = tested on: normal human epidermal keratinocytes; details: cited from earlier work
Description: (§1) Encouraged by the efficacy of the MP1/Nis/Aur combination in inhibiting S. aureus in the wound, we sought to examine the potential of the antimicrobial combination in treating mastitis, an infection often caused by S. aureus.

[2] = tested on: S. aureus Xen31 isolates Mut1 and Mut2; assay: Spot-on-lawn assay on isolates recovered from wounds; format: cell-based; details: for zone of inhibition compared to wild-type strain Xen31: both isolates Mut1 and Mut2, 2 µl of 1 mg/ml nisin A, 0.1 mg/ml MP1 and/or 0.1 mg/ml AuresinePlus spotted
Experimental: Figure S9. Susceptibility of Xen31 mutants recovered from wounded mice. Spot-on-lawn assay using MP1 (M), Nis (N), Aur (A) or the tricomponent combination (MNA) comparing Xen31 WT with two resistant isolates recovered at day 7 PI from the back of wounded mice. Two µl of 1 mg/ml nisin A, 0.1 mg/ml MP1 and/or 0.1 mg/ml AuresinePlus were spotted.

[3] = tested on: S. aureus Xen31; details: formulation: 0.1 mg/mL MP1, 5 mg/mL garvicin KS, 5 mg/mL penicillin G in 5% hydropropylcellulose; cited from earlier work
Description: (§2) The antimicrobial combinations of MP1, Nis, and AuresinePlus were additionally shown to be effective at eradicating S. aureus biofilms (Fig. 3B and C). This led us to assess the antimicrobial efficacy of the combination in vivo using a murine skin infection model. For infected mice treated with the combination, a reduction in the bioluminescence signal was observed throughout the experiment, except for two mice where a relapse of the infection occurred (see Discussion below, Fig. 4C).

[4] = tested on: HepG2 and THP-1 cell lines; details: cited from earlier work
Description: as §1

[5] = tested on: S. aureus Xen36; details: cited from earlier work
Description: as §2

[6] = tested on: HT29 and Caco-2 cell lines; details: in vitro; cited from earlier work
Description: as §1

[7] = tested on: S. aureus; details: in vitro; cited from earlier work
Description: As individual components, these antimicrobials probably have limited efficacy against S. aureus in wounds. AuresinePlus is an engineered PGH consisting of the catalytic domain of the S. aureus autolysin LytM and the SH3b cell wall-binding domain lysostaph ...

Substance | IC50 (midpoint cytotoxicity value) [1] | sensitivity of isolate Mut2 ([2]; Mut2, 2 µl of 0.1 mg/ml MP1 spotted) | zone of inhibition compared to wild-type strain Xen31 [2] | negative effects on the mice [3] | concentration above which growth is impaired [4] | effect on wound healing [5] | reduction in bacterial counts ([5]; skin wounds, nisin concentration comparable to this study) | IC50 (cytotoxicity) [6] | frequency of spontaneous mutations conferring high levels of nisin tolerance [7]
Lysostaphin: large (>10 kDa) heat-labile bacteriolysin from S. simulans | 16 mg/mL | – | – | – | – | – | – | – | –
micrococcin P1 [MP1] | – | insensitive | particularly reduced | no obvious negative effects on the mice | above 0.03 mg/mL | – | – | – | –
nisin A (ITSISLCTPGCKTGALMGCNMKTATCHCSIHVSK; also: lantibiotic (lanthionine rings, dehydro residues) not placed; UniProt P13068 24-57, looked up) [lantibiotic bacteriocin; commercial fermentate from Sigma-Aldrich (N5764; 2.5% wt/wt nisin)] | – | – | particularly reduced | – | – | no negative effects on wound healing | 2 log | 0.3 to 0.4 mg/mL | 2 × 10^−7
